Reference: ChEMBL document CHEMBL1201862, “PubChem BioAssay data set” (2004)
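Step 1: Grow cells in 96-well plates. Step 2: Expose to compound for 48 hours at 5 concentrations. Step 3: Interpolate endpoints linearly; if unreached, use highest concentration. GI50: concentration for 50% inhibition of growth.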 The source made the active and inactive calls. No stated cut-off is given here; in the data, active = GI50 up to about 1.1 µM and inactive = higher.

Tests used:
Test in all cases: NCI anticancer screen, dose series, 48 h
SF-295 = test system: SF-295
SF-268 = test system: SF-268
RXF 393 = test system: RXF 393
KM-20L2 = test system: KM-20L2
DU-145 = test system: DU-145
ACHN = test system: ACHN
Hs-578T = test system: Hs-578T
A549 = test system: A549
MOLT-4 = test system: MOLT-4
M14 = test system: M14
NCI-H522 = test system: NCI-H522
LOX IMVI = test system: LOX IMVI
RPMI-8226 = test system: RPMI-8226
HCC 2998 = test system: HCC 2998
UO-31 = test system: UO-31
BT-549 = test system: BT-549
XF498 = test system: XF498
HCT-116 = test system: HCT-116
IGROV-1 = test system: IGROV-1
HOP-62 = test system: HOP-62
OVCAR-3 = test system: OVCAR-3
SK-MEL-2 = test system: SK-MEL-2
KM12 = test system: KM12
Malme-3M = test system: Malme-3M
MDA-MB-231 = test system: MDA-MB-231
SK-MEL-28 = test system: SK-MEL-28
SN12C = test system: SN12C
UACC-62 = test system: UACC-62
M19-MEL = test system: M19-MEL
CCRF-CEM = test system: CCRF-CEM
SF-539 = test system: SF-539
UACC-257 = test system: UACC-257
DMS-114 = test system: DMS-114
MCF7 = test system: MCF7
TK-10 = test system: TK-10
NCI-H460 = test system: NCI-H460
HL-60 = test system: HL-60
SK-OV-3 = test system: SK-OV-3
SNB-78 = test system: SNB-78
T47D = test system: T47D
SW-620 = test system: SW-620
HOP-92 = test system: HOP-92
HT-29 = test system: HT-29
DLD-1 = test system: DLD-1
SNB-19 = test system: SNB-19
K562 = test system: K562
HOP-18 = test system: HOP-18
COLO 205 = test system: COLO 205
SK-MEL-5 = test system: SK-MEL-5
OVCAR-5 = test system: OVCAR-5
786-0 = test system: 786-0
HCT-15 = test system: HCT-15
PC-3 = test system: PC-3
U-251 = test system: U-251
OVCAR-4 = test system: OVCAR-4
A498 = test system: A498
NCI-H226 = test system: NCI-H226
DMS-273 = test system: DMS-273
OVCAR-8 = test system: OVCAR-8
RXF 631 = test system: RXF 631
NCI-H23 = test system: NCI-H23
EKVX = test system: EKVX
LXFL 529 = test system: LXFL 529
SNB-75 = test system: SNB-75
MDA-N = test system: MDA-N
SR = test system: SR
CAKI-1 = test system: CAKI-1
MDA-MB-435 = test system: MDA-MB-435
NCI/ADR-RES = test system: NCI/ADR-RES

Measured: GI50

COc1ccc2nc(-c3ccc(O)cc3)cc(O)c2c1
1.36 µM: HCT-15
inactive: SF-295 2.1 µM | KM-20L2 1.7 µM | DU-145 15.7 µM | ACHN 3.82 µM | Hs-578T 4.3 µM | A549 3.7 µM | MOLT-4 1.41 µM | LOX IMVI 1.58 µM | RPMI-8226 1.65 µM | UO-31 3.14 µM | BT-549 25.9 µM | IGROV-1 3.87 µM | HOP-62 1.42 µM | MDA-MB-231 22.6 µM | SK-MEL-28 1.15 µM | SN12C 2.78 µM | UACC-257 1.87 µM | MCF7 3.52 µM | TK-10 8.97 µM | NCI-H460 1.95 µM | T47D 4.73 µM | HT-29 2.26 µM | DLD-1 1.35 µM | SNB-19 3.75 µM | HOP-18 4.78 µM | COLO 205 1.28 µM | OVCAR-5 > 25.9 µM | 786-0 2.09 µM | PC-3 4.78 µM | OVCAR-4 5.12 µM | OVCAR-8 2.28 µM | RXF 631 3.63 µM | NCI-H23 1.16 µM | EKVX 7.06 µM | MDA-N 2.76 µM
active: SF-268 0.764 µM | RXF 393 0.137 µM | M14 0.857 µM | NCI-H522 0.579 µM | HCC 2998 0.9 µM | XF498 0.556 µM | HCT-116 0.977 µM | OVCAR-3 0.887 µM | SK-MEL-2 0.679 µM | KM12 1.03 µM | Malme-3M 0.459 µM | UACC-62 0.697 µM | M19-MEL 0.465 µM | CCRF-CEM 1.09 µM | SF-539 0.826 µM | DMS-114 0.474 µM | HL-60 0.649 µM | SK-OV-3 1.06 µM | SNB-78 0.841 µM | SW-620 1.07 µM | HOP-92 0.631 µM | K562 0.598 µM | SK-MEL-5 0.714 µM | U-251 0.718 µM | A498 0.269 µM | NCI-H226 0.959 µM | DMS-273 0.206 µM | LXFL 529 1.1 µM | SNB-75 0.434 µM

O=C(CCN1CCN(c2cccc(Cl)c2)CC1)N1CCc2c([nH]c3ccccc23)C1c1cccnc1 (stereo not drawn)
3.4 µM: HCT-15
inactive: SR 1.75 µM | SF-295 4.72 µM | RXF 393 7.4 µM | KM-20L2 5.52 µM | ACHN 4.78 µM | A549 6.28 µM | MOLT-4 2.95 µM | M14 3.37 µM | NCI-H522 4.19 µM | LOX IMVI 3.52 µM | RPMI-8226 4.72 µM | HCC 2998 1.91 µM | UO-31 2.98 µM | XF498 3.27 µM | HCT-116 7.13 µM | IGROV-1 7.87 µM | HOP-62 9.1 µM | OVCAR-3 2.47 µM | SK-MEL-2 6.12 µM | KM12 3.05 µM | Malme-3M 7.71 µM | SK-MEL-28 11.9 µM | SN12C 6.62 µM | CAKI-1 3.8 µM | UACC-62 > 10 µM | M19-MEL 13.3 µM | CCRF-CEM 5.56 µM | SF-539 13.7 µM | UACC-257 2.81 µM | DMS-114 6.65 µM | TK-10 4.01 µM | NCI-H460 4.05 µM | HL-60 2.54 µM | SK-OV-3 6.59 µM | SNB-78 3.72 µM | SW-620 > 10 µM | HOP-92 1.9 µM | HT-29 3.56 µM | DLD-1 5.32 µM | SNB-19 6.82 µM | K562 2.78 µM | HOP-18 12.8 µM | COLO 205 3.66 µM | SK-MEL-5 6.25 µM | OVCAR-5 4.72 µM | 786-0 4.89 µM | U-251 7.08 µM | OVCAR-4 2.58 µM | NCI-H226 18.6 µM | DMS-273 8.28 µM | OVCAR-8 6.55 µM | RXF 631 2.59 µM | NCI-H23 7.89 µM | EKVX 8.73 µM | LXFL 529 4.19 µM | SNB-75 9.68 µM
active: A498 0.282 µM

Cc1c2cc[n+](C)cc2c(C)c2c1sc1ccccc12
inactive: MDA-MB-435 2.05 µM | RXF 393 1.56 µM | KM-20L2 2.04 µM | DU-145 1.48 µM | ACHN 4.7 µM | M14 4.73 µM | LOX IMVI 4.06 µM | RPMI-8226 1.22 µM | HCC 2998 1.44 µM | UO-31 8.69 µM | HCT-116 3.63 µM | IGROV-1 1.12 µM | OVCAR-3 1.29 µM | SK-MEL-2 2.9 µM | MDA-MB-231 2.39 µM | SK-MEL-28 2.45 µM | CAKI-1 3.46 µM | UACC-62 1.63 µM | UACC-257 1.94 µM | MCF7 1.3 µM | TK-10 13.4 µM | HL-60 3.33 µM | NCI/ADR-RES 18.9 µM | SK-OV-3 1.49 µM | HOP-92 1.3 µM | HT-29 3.85 µM | DLD-1 3.05 µM | K562 2.26 µM | HOP-18 9.14 µM | SK-MEL-5 1.39 µM | OVCAR-5 3.86 µM | PC-3 1.48 µM | OVCAR-4 3.4 µM | A498 1.45 µM | EKVX 3.01 µM | MDA-N 2.77 µM
18.3 µM: HCT-15
active: SR 0.246 µM | SF-295 0.143 µM | SF-268 0.199 µM | Hs-578T 0.069 µM | A549 0.159 µM | MOLT-4 0.131 µM | NCI-H522 0.661 µM | BT-549 0.294 µM | XF498 0.564 µM | HOP-62 0.452 µM | KM12 0.457 µM | Malme-3M 0.542 µM | SN12C 0.132 µM | M19-MEL 1.1 µM | CCRF-CEM 0.776 µM | SF-539 0.332 µM | DMS-114 0.395 µM | NCI-H460 0.35 µM | SNB-78 0.855 µM | T47D 0.798 µM | SW-620 0.553 µM | SNB-19 0.205 µM | COLO 205 1.07 µM | 786-0 0.204 µM | U-251 0.114 µM | NCI-H226 0.383 µM | DMS-273 0.853 µM | OVCAR-8 0.33 µM | RXF 631 0.194 µM | NCI-H23 0.528 µM | LXFL 529 0.456 µM | SNB-75 0.199 µM

COC(=O)CCC(=O)Nc1ccc(Cl)cc1C
active: RPMI-8226 0.973 µM | CCRF-CEM 0.123 µM | DMS-114 0.859 µM | HL-60 0.399 µM
> 100 µM: HCT-15
inactive: SR 5.47 µM | SF-295 > 100 µM | RXF 393 > 63 µM | KM-20L2 > 48.4 µM | ACHN > 37.2 µM | A549 > 22 µM | MOLT-4 1.8 µM | M14 > 100 µM | NCI-H522 3.41 µM | LOX IMVI > 25.8 µM | HCC 2998 > 100 µM | XF498 13.5 µM | HCT-116 > 100 µM | IGROV-1 > 64 µM | HOP-62 39.4 µM | OVCAR-3 43.9 µM | SK-MEL-2 > 47.8 µM | KM12 15.5 µM | Malme-3M > 100 µM | SK-MEL-28 > 100 µM | SN12C > 23.2 µM | CAKI-1 23.4 µM | UACC-62 14.3 µM | M19-MEL > 100 µM | SF-539 > 100 µM | UACC-257 > 67.1 µM | TK-10 > 100 µM | NCI-H460 > 100 µM | SK-OV-3 > 100 µM | SNB-78 98.4 µM | SW-620 > 100 µM | HOP-92 > 60.8 µM | HT-29 > 100 µM | DLD-1 > 100 µM | SNB-19 > 100 µM | K562 20.8 µM | HOP-18 > 100 µM | COLO 205 > 64.9 µM | SK-MEL-5 > 92.9 µM | OVCAR-5 > 100 µM | 786-0 > 50.8 µM | U-251 > 22.4 µM | OVCAR-4 > 75.7 µM | NCI-H226 > 52.6 µM | DMS-273 > 100 µM | OVCAR-8 > 100 µM | RXF 631 > 29.9 µM | NCI-H23 > 71 µM | EKVX > 55.2 µM | LXFL 529 32.1 µM | SNB-75 > 74.5 µM
